According to patent publication US20030040531A1, “Remedies for reperfusion injury containing integrin alphanubeta 3 antagonist” (priority 2000, published 2003):

How the values were obtained:
integrin αvβ3 = integrin αvβ3 (Homo sapiens, UniProt P05106+P06756); assay: integrin αvβ3 binding assay (Pharmacological Example 1 in WO 99/38849)
From the text: Whether or not a compound has integrin αvβ3 antagonistic activity may be determined by assaying the antagonistic action by integrin αvβ3 binding assay as described, for example, in Pharmacological Test Example 1 in WO 99/38849.

platelet aggregation [1] = assay: inhibition of platelet aggregation, rat; format: cell-based; conditions: read-out: concentration (IC50) necessary for inhibition of platelet aggregation
platelet aggregation [2] = assay: inhibition of platelet aggregation, human; format: cell-based; conditions: read-out: concentration (IC50) necessary for inhibition of platelet aggregation
platelet aggregation [3] = assay: inhibition of platelet aggregation, dog; format: cell-based; conditions: Canis lupus familiaris, read-out: concentration (IC50) necessary for inhibition of platelet aggregation
[4] = system: human vascular smooth muscle cells; assay: adhesion of human vascular smooth muscle cells to immobilized human vitronectin; format: cell-based; conditions: read-out: concentration (IC50) necessary for inhibition of adhesion to vitronectin
Method: (§1) The adhesion of vascular smooth muscle cells to immobilized human vitronectin was measured in accordance with the method of Liaw et al. (L. Liaw et al., Circ. Res., 74, 214 (1994)). A Dulbecco's phosphate buffer (Dulbecco's PBS(−)) solution of human serum-derived vitronectin adjusted to a concentration of 4 μg/ml was first added to wells (50 μl/well) of a microplate (Maxisorp), and a reaction for immobilization was allowed to proceed at 4° C. overnight. After washing twice with 150 μl of Dulbecco's PBS (−), Dulbecco's PBS (−) containing 10 mg/ml of bovine serum albumin was added, followed by blocking at 37° C. for one hr. The microplate was then washed twice with 150 μl of Dulbecco's PBS (−) to prepare an assay plate.
Separately, human vascular smooth muscle cells cultivated at 37° C. under 5% carbon dioxide in a medium for vascular smooth muscle cells were separated using a Dulbecco's PBS (−) containing trypsin-EDTA, were washed with Dulbecco's PBS (−), and were then suspended in a Dulbecco's modified Eagle's basal medium to a concentration of 2×10^5/ml.
Next, 50 μl of a Dulbecco's modified Eagle's basal medium containing 20 mg/ml of bovine serum albumin with a medicament added thereto was added to the wells of the human vitronectin-coated assay microplate, followed by pre-cultivation under 5% carbon dioxide at 37° C. for 10 min. Thereafter, 50 μl of the Dulbecco's modified Eagle's basal medium with human vascular smooth muscle cells suspended therein was added thereto, and the plate was thoroughly stirred. A reaction was allowed to proceed under 5% carbon dioxide at 37° C. for 90 min. The reaction solution containing non-adherent cells was then removed, followed by washing three times with Dulbecco's PBS (−). For the adhered cells, 100 μl of Dulbecco's PBS (−) containing 4% paraformaldehyde was added, and immobilization was allowed to proceed at room temperature for 10 min. Next, 100 μl of a Dulbecco's PBS (−) containing 0.5% Toluidine Blue and 4% paraformaldehyde was added, and staining was allowed to proceed at room temperature for 5 min, followed by thorough washing with distilled water. The inside of the wells was then air-dried, and 1% aqueous sodium dodecylsulfate solution was then added to perform cytolysis. The absorbance of the microplate thus obtained was measured at 595 nm. […] The inhibition was calculated by the following equation. IC50 was determined from a primary regression line of the logarithm of each concentration of the test compound and the logarithm of (100−inhibition)/inhibition. [formula]

U937 cells = assay: adhesion of human monocytes (U937 cells) to human activated vascular endothelial cells; format: cell-based; conditions: average on three wells±SD, control group 4522±1027
Method: The adhesion of human monocytes to vascular endothelial cells was measured with reference to the method of Murphy et al. (J. F. Murphy et al., Biochem. J. 304, 537 (1994)). Human funicular venoendothelial cells (4×10^4/well), which had been cultivated in a type-I collagen-coated flask containing a 199 medium containing an endothelial cell growth factor (15 μg/ml), heparin (5 U/ml), and 20% fetal calf serum, were cultivated using a type-I collagen-coated microplate in the above medium under 5% carbon dioxide at 37° C. for 2 days to prepare a layer of vascular endothelial cells. The layer of vascular endothelial cells was washed with PBS (−) and was then cultivated in PBS (−) containing 1 U/ml bovine thrombin, 5 mM CaCl2, and 5 mM MgCl2 for 5 min, followed -by washing with PBS(−) containing 10^-6 M D-phenylalanyl-L-prolyl-L-argininechloromethane and with PBS(−).
Next, U937 cells, which had been cultivated in an RPMI 1640 medium containing 10% fetal calf serum, were cultivated in the above medium containing 6 μM 2′,7′-bis(carboxyethyl)carboxyfluorescein tetraacetoxymethyl ester under 5% carbon dioxide at 37° C. for one hr, were washed with PBS (−), and were subjected to fluorescent labeling. The labeled U937 cells (2×10^5/well), the medicament, and 100 μl of an RPMI 1640 medium containing 1% fetal calf serum were added onto the layer of vascular endothelial cells, and an adhesion reaction was allowed to proceed under 5% carbon dioxide at 37° C. for 10 min. Next, nonadherent cells were removed, and 50 mM Tris HCl (pH 8.4) containing 0.1% sodium dodecylsulfate was added to elute the fluorescent dye, followed by fluorometry (excitation wavelength 485 nm, measurement wavelength 530 nm).

[5] = system: hamster vascular smooth muscle cells; assay: adhesion of hamster vascular smooth muscle cells to rat vitronectin; format: cell-based; conditions: Mesocricetus auratus, read-out: concentration (IC50) necessary for inhibition of adhesion to vitronectin
Method: as §1
Next, 50 μl of a Dulbecco's modified Eagle's basal medium containing 20 mg/ml of bovine serum albumin with a medicament added thereto was added to the wells of the human vitronectin-coated assay microplate, followed by pre-cultivation under 5% carbon dioxide at 37° C. for 10 min. […] The absorbance of the microplate thus obtained was measured at 595 nm. […] The inhibition was calculated by the following equation. IC50 was determined from a primary regression line of the logarithm of each concentration of the test compound and the logarithm of (100−inhibition)/inhibition. […]

Sequence of integrin αvβ3 (P06756 31-1048): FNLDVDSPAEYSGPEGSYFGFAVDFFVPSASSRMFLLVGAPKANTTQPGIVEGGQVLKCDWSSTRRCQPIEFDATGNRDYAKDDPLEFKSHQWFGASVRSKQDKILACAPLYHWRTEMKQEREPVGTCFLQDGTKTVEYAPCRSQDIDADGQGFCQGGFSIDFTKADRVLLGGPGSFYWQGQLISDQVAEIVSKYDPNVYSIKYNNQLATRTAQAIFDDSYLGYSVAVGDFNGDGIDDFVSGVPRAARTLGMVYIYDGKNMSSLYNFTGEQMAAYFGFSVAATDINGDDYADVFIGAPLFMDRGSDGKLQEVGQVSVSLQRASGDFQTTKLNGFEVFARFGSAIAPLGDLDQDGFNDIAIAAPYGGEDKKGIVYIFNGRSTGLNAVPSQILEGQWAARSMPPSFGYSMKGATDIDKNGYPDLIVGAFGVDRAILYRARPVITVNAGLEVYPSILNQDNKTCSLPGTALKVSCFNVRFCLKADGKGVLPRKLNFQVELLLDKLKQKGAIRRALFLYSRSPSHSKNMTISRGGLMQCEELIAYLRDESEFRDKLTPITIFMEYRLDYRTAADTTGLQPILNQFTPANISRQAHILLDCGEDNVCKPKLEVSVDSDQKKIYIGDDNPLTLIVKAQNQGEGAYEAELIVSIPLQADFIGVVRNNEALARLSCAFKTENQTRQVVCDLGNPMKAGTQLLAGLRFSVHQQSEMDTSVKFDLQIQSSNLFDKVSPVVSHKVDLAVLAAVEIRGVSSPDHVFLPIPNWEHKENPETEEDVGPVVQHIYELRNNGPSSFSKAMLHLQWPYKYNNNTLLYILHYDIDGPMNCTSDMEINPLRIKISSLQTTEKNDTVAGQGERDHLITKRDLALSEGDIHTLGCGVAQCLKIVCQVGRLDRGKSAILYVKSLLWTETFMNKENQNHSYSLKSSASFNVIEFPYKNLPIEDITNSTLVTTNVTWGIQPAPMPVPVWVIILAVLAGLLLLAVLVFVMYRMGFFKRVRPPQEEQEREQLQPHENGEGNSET
Sequence of integrin αvβ3 (P05106 27-788): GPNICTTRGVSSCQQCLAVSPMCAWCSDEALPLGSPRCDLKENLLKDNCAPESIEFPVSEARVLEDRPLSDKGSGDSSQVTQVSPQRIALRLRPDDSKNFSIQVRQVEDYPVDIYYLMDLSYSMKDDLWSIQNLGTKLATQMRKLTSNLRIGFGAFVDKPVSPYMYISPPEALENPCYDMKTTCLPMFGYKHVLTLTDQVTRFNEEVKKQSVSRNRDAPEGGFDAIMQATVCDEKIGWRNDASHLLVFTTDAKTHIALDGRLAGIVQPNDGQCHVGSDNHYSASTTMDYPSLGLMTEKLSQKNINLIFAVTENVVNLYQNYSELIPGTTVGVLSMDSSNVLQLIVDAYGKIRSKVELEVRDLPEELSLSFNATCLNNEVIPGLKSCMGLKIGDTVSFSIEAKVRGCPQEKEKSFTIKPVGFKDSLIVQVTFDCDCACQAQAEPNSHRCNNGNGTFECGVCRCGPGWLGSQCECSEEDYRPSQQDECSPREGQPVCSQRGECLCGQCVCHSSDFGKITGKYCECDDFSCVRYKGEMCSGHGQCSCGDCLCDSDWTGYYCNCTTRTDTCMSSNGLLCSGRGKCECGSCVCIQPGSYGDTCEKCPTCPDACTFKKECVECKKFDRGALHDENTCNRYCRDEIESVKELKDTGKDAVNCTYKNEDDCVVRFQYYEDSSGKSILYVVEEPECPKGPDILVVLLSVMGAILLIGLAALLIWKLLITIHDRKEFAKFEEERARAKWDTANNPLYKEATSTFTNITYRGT

O=C(NCC(NS(=O)(=O)c1ccccc1)C(=O)O)c1ccc(N2CCC(NC3=NCCCN3)CC2)c(F)c1 (stereo in doubt) [formula (IV), (2S)-Benzenesulfonylamino-3-[3-fluoro-4-{4-(1,4,5,6-tetrahydropyrimidin-2-ylamino)-piperidin-1-yl}benzoylamino]propionic Acid]
IC50 (integrin αvβ3): 0.2 nM | IC50 (platelet aggregation [1]): > 100000 nM | IC50 (platelet aggregation [2]): 55 nM | IC50 (platelet aggregation [3]): 45 nM | IC50 [4]: 37 nM | fluorescence intensity (adhered U937 cells) (U937 cells; 10^-6 M): 3710+969 arbitrary unit | fluorescence intensity (adhered U937 cells) (U937 cells; 10^-7 M): 4389+640 arbitrary unit | fluorescence intensity (adhered U937 cells) (U937 cells; 10^−4 M): -34+74 arbitrary unit | fluorescence intensity (adhered U937 cells) (U937 cells; 10^−5 M): 1968±187 arbitrary unit | IC50 [5]: 730 nM
